These results are taken from patent US8415469B2, “Compounds and methods for kinase modulation, and indications therefor” (Plexxikon Inc., priority 2005, dated 2013).

What is called IC50 is the concentration that gives 50% inhibition.

Data set [1] deals with human gastric cancer cell line MKN28. The following applies: cited from earlier work.
The test system of data set [2] is AML blasts harboring FLT3/ITD mutations. The following applies: primary AML blasts harboring FLT3/ITD mutations; cited from earlier work.
In data set [3] the test system is primary cultures of human and murine microglia. The following applies: stimulated with endotoxins or Abeta 1-40; cited from earlier work.
The subject of the next data set is brain TNF production. Conditions: mice, intracerebroventricular lipopolysaccharide; cited from earlier work.
For another data set, the system named is U87MG glioma cells. The following applies: cited from earlier work.
The next data set deals with T1, B-Raf (Homo sapiens, UniProt P15056).
T1 construct: purchased Upstate Biotechnology
The experiment in a line: AlphaScreen kinase assay, B-Raf. In kind it is biochemical. The following applies: read-out: IC50, activity toward kinase B-Raf. A general note: In Alpha technology, singlet oxygen from a donor bead excites a nearby acceptor bead.

In another data set the target is T2, B-Raf V600E (Homo sapiens, UniProt P15056, V600E).
T2 construct: P4254. pFastBacBD-CDC37 BRAF D437-K722-X, V600E; His6 with pFastBac HT leader (TEV site) (N); made in house; host or cells: Sf9 (baculovirus; chaperone CDC37 co-expressed)
T2 sequence (P15056 with tags, fused parts or gaps V600E): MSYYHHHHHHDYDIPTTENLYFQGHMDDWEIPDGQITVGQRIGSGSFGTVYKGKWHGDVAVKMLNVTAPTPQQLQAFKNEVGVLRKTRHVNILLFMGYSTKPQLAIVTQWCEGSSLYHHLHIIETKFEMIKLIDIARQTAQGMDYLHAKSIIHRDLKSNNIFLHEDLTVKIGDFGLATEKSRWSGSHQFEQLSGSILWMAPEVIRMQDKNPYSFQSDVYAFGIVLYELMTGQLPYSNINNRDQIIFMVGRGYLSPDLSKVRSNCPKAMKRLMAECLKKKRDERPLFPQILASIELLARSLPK
Description: AlphaScreen kinase assay, B-Raf V600E. The following applies: read-out: IC50, activity toward kinase B-Raf V600E. Type of data set: biochemical.

In another data set the target is T3, c-Raf-1 (Homo sapiens, UniProt P04049).
T3 construct: purchased Upstate Biotechnology
T3 sequence (P04049 whole entry): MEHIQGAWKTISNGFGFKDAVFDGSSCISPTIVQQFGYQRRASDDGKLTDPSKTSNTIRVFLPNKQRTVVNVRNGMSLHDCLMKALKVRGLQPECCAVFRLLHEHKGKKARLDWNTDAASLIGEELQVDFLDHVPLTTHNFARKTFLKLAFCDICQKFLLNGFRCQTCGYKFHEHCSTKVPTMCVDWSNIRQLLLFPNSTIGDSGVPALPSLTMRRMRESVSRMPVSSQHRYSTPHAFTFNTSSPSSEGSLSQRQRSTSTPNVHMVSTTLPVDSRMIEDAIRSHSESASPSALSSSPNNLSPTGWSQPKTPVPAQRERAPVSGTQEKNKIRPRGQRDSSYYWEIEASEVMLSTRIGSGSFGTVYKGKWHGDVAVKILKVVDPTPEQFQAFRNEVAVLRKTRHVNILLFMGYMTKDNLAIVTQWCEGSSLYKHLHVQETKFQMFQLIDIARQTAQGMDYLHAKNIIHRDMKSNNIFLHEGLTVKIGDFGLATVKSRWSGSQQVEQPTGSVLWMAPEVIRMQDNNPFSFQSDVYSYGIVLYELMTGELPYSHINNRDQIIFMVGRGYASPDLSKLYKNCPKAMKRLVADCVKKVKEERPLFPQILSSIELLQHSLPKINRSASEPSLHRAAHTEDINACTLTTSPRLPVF
The experiment in a line: AlphaScreen kinase assay, c-Raf-1. Type of data set: biochemical. Conditions: read-out: IC50, activity toward kinase c-Raf-1.

The target in a further data set is T4, Flt3 (Homo sapiens, UniProt P36888).
T4 construct: purchased Invitrogen (assay run by Invitrogen)
T4 sequence (P36888 27-993): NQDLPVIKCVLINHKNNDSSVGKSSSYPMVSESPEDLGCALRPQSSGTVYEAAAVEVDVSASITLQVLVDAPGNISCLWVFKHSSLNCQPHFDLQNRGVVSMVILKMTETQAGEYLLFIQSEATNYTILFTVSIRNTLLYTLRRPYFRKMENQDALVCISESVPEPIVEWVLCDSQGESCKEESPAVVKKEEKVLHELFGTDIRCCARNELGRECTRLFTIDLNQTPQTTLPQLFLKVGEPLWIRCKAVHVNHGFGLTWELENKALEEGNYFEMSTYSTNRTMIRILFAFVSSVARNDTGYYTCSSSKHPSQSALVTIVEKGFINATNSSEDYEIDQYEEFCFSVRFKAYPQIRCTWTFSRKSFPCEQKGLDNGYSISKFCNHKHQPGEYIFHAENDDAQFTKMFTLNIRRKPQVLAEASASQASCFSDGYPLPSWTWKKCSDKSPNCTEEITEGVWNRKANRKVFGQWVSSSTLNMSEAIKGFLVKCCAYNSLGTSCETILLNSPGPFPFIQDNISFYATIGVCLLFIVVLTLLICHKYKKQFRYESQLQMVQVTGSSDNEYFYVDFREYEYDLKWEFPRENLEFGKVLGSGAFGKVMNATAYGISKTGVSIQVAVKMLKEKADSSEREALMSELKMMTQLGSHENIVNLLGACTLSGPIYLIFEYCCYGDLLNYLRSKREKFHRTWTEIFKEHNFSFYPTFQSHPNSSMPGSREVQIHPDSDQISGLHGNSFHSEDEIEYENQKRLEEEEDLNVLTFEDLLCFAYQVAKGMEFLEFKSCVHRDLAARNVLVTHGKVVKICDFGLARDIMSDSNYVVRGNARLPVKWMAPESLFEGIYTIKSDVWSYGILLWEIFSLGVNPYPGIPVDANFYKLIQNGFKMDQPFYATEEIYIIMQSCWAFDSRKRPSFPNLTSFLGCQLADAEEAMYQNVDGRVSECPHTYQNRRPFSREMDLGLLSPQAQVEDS
The experiment in a line: Z'-Lyte FRET kinase assay (Invitrogen), Flt3. Type of data set: biochemical. The following applies: read-out: IC50, activity toward kinase Flt3. An excerpt:
The effect of potential modulators of kinase activity can be measured in a variety of different assays known in the art. For example, direct radiometric, indirect FRET or AlphaScreen assays may be used to assess the level of phosphorylation of a substrate in the presence of test compounds in order to determine the inhibitory affect of the compound on the kinase. Invitrogen (Carlsbad, Calif.) uses a FRET based assay for Btk, EGFR, EphB2, Flt3, lrak4, Kdr, MAP2K1, MAPKAPK2, PDGFRB, PKC theta, Stk6 and Yes. For these assays, compounds of the invention were screened by Invitrogen using Z′-Lyte™ kinase assay.
Briefly, the Invitrogen kinase assay involves use of a specific peptide substrate optimized for each kinase, containing a fluorophore at each end that make up the FRET pair. The peptide sensitivity to proteolytic cleavage depends on phosphorylation of the peptide. Non-phosphorylated peptide is cleaved by a protease while peptide phosphorylated by the kinase is not cleaved. Cleavage of the peptide disrupts the FRET between the donor (coumarin) and acceptor (fluorescein) fluorophores, resulting in an increase in the ratio of donor emission to acceptor emission. The emission ratio of coumarin to fluorescein is used to assess the reaction progress. The extent of phosphorylation is determined from the emission ratio, which is low when the kinase is active (phosphorylated peptide is not cleaved, FRET pair connected) or higher for inhibited kinase (non-phosphorylated peptide is cleaved, FRET pair separated). Thus, the assay involves a kinase reaction in the presence of varying concentrations of a given compound, a development reaction with site specific protease, and detection of the fluorescent emission ratio of coumarin and fluorscein. […] Reaction conditions for each kinase are determined to provide optimal reaction times, incubation temperature, kinase and ATP concentrations. Test samples are made up in 1× kinase buffer (50 mM HEPES pH 7.5, 50 mM MgCl2, 5 mM EGTA, 0.05% BRIJ-35) and compound at desired concentration prepared in DMSO such that the final DMSO is 1%. […] Typically, assay plates are prepared to 10 μl final volume per sample, adding 2.5 μl of compound at 4× the desired concentration in 4% DMSO (serial dilution of compound provides concentration curve), 5 μl of the desired kinase mixed with Z′-LYTE™ peptide substrate (2× in 2× kinase buffer, final peptide at 2 μM), and 2.5 μl of 4×ATP solution. All kinase except for MAP2K1 were at 10 μM ATP in the kinase reaction, while MAP2K1 was at 100 μM. Samples are mixed and the kinase reaction is incubated 1 hour at room temperature, after which 5 μl of development solution is added and mixed. After incubation for another 1 hour at room temperature, 5 μl of stop reagent is added to each sample and mixed. The fluorescence signals are measured to determine the emission ratio.

The target of the next data set is T5, Kdr (Homo sapiens, UniProt P35968).
T5 construct: purchased Invitrogen (assay run by Invitrogen)
T5 sequence (P35968 20-1356): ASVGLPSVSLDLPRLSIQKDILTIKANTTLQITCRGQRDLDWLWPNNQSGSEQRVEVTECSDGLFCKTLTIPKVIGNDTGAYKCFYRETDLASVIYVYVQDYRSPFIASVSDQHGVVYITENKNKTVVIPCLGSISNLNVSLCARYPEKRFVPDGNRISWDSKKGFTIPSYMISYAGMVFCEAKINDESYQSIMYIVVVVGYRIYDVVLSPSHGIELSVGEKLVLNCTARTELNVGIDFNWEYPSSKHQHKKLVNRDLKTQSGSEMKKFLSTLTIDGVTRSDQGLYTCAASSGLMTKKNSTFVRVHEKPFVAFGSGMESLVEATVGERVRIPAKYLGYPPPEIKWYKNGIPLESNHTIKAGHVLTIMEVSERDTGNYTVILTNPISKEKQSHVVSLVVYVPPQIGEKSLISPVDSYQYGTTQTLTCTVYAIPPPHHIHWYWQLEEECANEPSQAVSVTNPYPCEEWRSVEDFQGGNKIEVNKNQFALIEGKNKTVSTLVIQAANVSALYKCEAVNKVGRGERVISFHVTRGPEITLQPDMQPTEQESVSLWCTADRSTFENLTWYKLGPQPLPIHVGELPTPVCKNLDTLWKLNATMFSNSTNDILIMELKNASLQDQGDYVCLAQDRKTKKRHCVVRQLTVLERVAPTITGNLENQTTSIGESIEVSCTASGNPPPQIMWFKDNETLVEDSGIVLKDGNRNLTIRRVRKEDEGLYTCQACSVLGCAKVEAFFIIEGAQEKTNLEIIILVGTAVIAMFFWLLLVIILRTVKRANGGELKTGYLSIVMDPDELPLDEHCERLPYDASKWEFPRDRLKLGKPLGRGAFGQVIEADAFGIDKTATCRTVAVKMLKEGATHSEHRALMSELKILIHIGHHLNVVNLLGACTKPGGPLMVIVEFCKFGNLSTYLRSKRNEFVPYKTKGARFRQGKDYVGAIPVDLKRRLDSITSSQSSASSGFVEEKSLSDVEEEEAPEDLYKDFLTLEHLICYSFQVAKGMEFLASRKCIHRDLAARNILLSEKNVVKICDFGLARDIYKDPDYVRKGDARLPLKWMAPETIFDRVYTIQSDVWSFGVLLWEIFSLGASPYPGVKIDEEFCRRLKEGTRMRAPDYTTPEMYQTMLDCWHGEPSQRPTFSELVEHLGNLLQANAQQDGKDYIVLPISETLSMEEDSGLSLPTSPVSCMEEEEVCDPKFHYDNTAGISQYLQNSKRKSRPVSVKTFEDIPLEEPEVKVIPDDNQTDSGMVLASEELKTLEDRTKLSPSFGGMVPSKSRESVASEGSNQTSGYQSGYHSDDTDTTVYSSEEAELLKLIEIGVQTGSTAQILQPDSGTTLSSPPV
Description: Z'-Lyte FRET kinase assay (Invitrogen), Kdr. Type of data set: biochemical. Conditions: read-out: IC50, activity toward kinase Kdr.

The target in another data set is ALK (Homo sapiens, UniProt Q9UM73). Description: AlphaScreen kinase assay, ALK. Type of data set: biochemical. Conditions: read-out: IC50, activity toward kinase ALK. An excerpt: (§1) AlphaScreen assay was used to screen additional kinases. The assay is similarly dependent on the phosphorylation of a peptide substrate. In this assay, an antibody that recognizes phosphorylated substrate is bound to an acceptor bead. The peptide substrate is attached to biotin, which binds to a donor head that contains streptavidin. Thus phosphorylated substrate is bound by antibody and streptavidin, bringing the donor and acceptor heads into close proximity when kinase is not inhibited. The donor produces singlet oxygen which results in emission from the acceptor when they are in close proximity. Conversely, when kinase is inhibited, the donor and acceptor beads are not associated and the emission from the acceptor is reduced.
Sequence of ALK (Q9UM73 19-1620): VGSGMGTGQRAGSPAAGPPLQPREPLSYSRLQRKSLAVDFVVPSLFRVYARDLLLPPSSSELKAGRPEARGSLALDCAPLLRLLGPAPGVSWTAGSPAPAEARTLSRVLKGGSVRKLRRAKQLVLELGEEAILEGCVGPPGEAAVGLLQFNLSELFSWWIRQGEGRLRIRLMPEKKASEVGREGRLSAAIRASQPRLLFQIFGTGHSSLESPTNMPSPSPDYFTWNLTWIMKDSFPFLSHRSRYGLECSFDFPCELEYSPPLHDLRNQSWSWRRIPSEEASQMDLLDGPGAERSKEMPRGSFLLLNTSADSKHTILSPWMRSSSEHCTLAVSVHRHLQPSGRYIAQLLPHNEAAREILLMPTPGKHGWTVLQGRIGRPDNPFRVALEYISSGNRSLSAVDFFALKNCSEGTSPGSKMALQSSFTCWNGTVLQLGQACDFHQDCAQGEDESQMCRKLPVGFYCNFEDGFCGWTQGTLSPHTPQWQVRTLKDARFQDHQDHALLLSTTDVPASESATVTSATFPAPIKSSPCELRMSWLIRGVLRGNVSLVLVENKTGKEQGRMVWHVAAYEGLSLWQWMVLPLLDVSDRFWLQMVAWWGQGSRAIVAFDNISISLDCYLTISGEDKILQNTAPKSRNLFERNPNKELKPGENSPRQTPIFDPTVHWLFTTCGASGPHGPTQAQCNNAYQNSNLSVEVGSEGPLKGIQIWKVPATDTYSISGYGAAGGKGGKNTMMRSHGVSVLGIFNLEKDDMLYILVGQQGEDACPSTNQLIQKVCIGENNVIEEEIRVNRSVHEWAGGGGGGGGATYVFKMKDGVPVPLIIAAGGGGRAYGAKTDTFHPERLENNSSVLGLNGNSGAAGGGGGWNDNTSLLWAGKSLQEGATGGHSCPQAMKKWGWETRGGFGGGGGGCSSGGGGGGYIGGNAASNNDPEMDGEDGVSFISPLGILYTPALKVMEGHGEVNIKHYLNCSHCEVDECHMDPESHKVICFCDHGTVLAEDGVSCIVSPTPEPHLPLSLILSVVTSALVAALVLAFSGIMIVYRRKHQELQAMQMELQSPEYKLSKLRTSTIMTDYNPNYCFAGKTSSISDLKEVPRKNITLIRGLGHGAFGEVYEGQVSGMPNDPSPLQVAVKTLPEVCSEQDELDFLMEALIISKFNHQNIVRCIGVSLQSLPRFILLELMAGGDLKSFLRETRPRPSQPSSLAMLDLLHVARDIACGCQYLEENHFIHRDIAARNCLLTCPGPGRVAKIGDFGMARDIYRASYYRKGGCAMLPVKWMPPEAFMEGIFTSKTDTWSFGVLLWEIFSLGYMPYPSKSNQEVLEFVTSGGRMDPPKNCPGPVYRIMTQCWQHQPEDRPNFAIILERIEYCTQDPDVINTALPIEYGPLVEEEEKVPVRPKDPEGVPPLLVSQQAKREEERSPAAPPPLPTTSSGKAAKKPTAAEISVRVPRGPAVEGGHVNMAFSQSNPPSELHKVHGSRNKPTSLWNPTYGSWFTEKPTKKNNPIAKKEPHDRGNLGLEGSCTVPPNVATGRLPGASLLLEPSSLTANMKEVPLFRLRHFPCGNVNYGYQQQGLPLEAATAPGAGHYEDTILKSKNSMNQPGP
(§2) AlphaScreen assays were done using compounds dissolved in DMSO to a concentration of 20 mM. The compounds were diluted accordingly to the desired final concentrations in each sample well, using 1:3 serial dilution for a total of 8 concentration points.

Another data set deals with Frk (Homo sapiens, UniProt P42685). Description: AlphaScreen kinase assay, Frk. Type of data set: biochemical. The following applies: read-out: IC50, activity toward kinase Frk. The essentials: (§3)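 Inhibition reads as diminished acceptor emission, since unphosphorylated peptide fails to bridge antibody acceptor beads and streptavidin donor beads. Titration: eight points, 1:3 steps, stocks at 20 mM in DMSO.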

The target of another data set is TrkA (Homo sapiens, UniProt P04629). Description: AlphaScreen kinase assay, TrkA. Type of data set: biochemical. The following applies: read-out: IC50, activity toward kinase TrkA.
Sequence of TrkA (P04629 33-796): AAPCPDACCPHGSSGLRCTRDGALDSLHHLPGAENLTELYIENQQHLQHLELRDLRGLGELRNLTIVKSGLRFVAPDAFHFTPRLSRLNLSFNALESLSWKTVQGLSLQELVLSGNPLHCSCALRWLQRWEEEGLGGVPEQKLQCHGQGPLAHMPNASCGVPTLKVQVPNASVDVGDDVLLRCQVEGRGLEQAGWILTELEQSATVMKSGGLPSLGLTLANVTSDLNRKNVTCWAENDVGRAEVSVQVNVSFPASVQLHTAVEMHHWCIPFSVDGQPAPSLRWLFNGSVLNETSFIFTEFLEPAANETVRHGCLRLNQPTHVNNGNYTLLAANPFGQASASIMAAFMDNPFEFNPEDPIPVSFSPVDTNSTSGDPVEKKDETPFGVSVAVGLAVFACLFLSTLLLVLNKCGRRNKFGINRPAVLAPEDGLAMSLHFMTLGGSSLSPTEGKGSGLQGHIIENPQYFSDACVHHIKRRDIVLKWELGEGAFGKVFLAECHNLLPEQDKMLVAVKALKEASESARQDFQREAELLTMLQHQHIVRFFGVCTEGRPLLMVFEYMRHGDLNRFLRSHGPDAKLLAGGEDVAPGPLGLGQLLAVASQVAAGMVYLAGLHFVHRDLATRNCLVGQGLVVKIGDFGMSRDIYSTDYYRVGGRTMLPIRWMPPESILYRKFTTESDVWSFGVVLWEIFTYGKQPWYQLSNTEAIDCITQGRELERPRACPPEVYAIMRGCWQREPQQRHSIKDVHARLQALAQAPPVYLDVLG
Excerpt: as §1, §2

Another data set has as its target Brk (Homo sapiens, UniProt Q13882). The experiment in a line: AlphaScreen kinase assay, Brk. Conditions: read-out: IC50, activity toward kinase Brk. Type of data set: biochemical. The essentials:
as §3

Sequence of Brk (Q13882 whole entry): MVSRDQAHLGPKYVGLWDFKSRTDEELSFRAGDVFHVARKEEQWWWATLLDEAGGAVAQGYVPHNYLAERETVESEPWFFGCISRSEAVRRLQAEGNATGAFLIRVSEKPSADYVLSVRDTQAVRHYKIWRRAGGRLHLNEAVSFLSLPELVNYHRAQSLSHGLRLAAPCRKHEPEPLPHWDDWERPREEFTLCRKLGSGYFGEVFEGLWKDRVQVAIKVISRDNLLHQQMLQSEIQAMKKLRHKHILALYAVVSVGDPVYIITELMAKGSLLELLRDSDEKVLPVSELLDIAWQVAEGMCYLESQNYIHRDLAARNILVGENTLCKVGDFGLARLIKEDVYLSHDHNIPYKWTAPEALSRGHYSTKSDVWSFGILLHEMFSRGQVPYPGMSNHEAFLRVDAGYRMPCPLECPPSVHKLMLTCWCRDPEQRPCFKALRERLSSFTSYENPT

For `CS(=O)(=O)Nc1ccc([N+](=O)[O-])cc1OC1CCCCC1` [NS-398], in data set [1], the “proliferation and growth of MKN28 cells” value was “significantly inhibit proliferation and growth”.

On to `Cc1cc2ncc(-c3ccccc3)nc2cc1C` [AG1295], for which, in data set [2], the “cytotoxicity to AML blasts” value is listed as “specifically cytotoxic”.

Take `COc1ccc2c(c1)c(CC(=O)O)c(C)n2C(=O)c1ccc(Cl)cc1` [indomethacin]: the “proliferation and growth of MKN28 cells” value in data set [1] is “significantly inhibit proliferation and growth”.

In the case of `CCSCc1ccc2c(c1)c1c3c(c4c5cc(CSCC)ccc5n5c4c1n2[C@H]1C[C@](O)(C(=O)OC)[C@]5(C)O1)CNC3=O` [CEP-1347], the “cytokine production (TNF-alpha, IL-6, MCP-1)” value in data set [3] is listed as “reduced cytokine production”. Further, the “brain TNF production” value with brain TNF production is reported as “inhibited brain TNF production”.

Consider `CN[C@@H]1C[C@H]2O[C@@](C)([C@@H]1OC)n1c3ccccc3c3c4c(c5c6ccccc6n2c5c31)C(=O)N[C@H]4O` [UCN-01, 7-hydroxystaurosporine], for which the “increase of the cytotoxicity of TMZ” value with U87MG glioma cells (combined with temozolomide) was 5 fold. In addition, the “toxicity of the inhibitor alone” value in the data set on U87MG glioma cells (without TMZ) is given as “not in itself toxic”.

Regarding `CCCS(=O)(=O)Nc1ccc(F)c(C(OC)c2c[nH]c3ncc(OC)cc23)c1F` (stereo not shown) [Compound P-1244, Propane-1-sulfonic acid {2,4-difluoro-3-[methoxy-(5-methoxy-1H-pyrrolo[2,3-b]pyridin-3-yl)-methyl]-phenyl}-amide], the half-maximal inhibitory concentration (IC50) on B-Raf, at B-Raf V600E, on c-Raf-1, on Flt3, on Kdr and at ALK was at most 10 µM in each case. The IC50 on Frk, at TrkA and at Brk was at most 10 µM each time.
